Experimental findings from patent US7709488B2, “Imidazopyridine-derivatives as inducible no-synthase inhibitors” (Altana Pharma AG, priority 2003, dated 2010) are described below.

Series [1] has as its target human inducible NO-synthase (Homo sapiens, UniProt P35228). The series can be described thus: Measurement of inducible NO-synthase activity ([3H]arginine conversion, crude cytosolic fraction). Format: biochemical. Conditions: 0.1 μM arginine, 45 to 60 min at 37° C., pH 7.2; for IC50: read-out: Inhibition of iNOS activity [measured as −logIC50 (mol/l)] (converted). As for the experimental part:
Measurement of Inducible NO-Synthase Activity
The assay is performed in 96-well microtiter F-plates (Greiner, Frickenhausen, FRG) in a total volume of 100 μl in the presence of 100 nM calmodulin, 226 μM CaCl2, 477 μM MgCl2, 5 μM flavin-adenine-dinucleotide (FAD), 5 μM flavin mononucleotide (FMN), 0.1 mM NADPH, 7 mM glutathione, 10 μM BH4 and 100 mM HEPES pH 7.2. Arginine concentrations are 0.1 μM for enzyme inhibition experiments. 150000 dpm of [^3H]arginine are added to the assay mixture. Enzyme reaction is started by the addition of 4 μg of a crude cytosolic fraction containing human inducible NO-synthase and the reaction mixture is incubated for 45 to 60 min at 37° C. Enzyme reaction is stopped by adding 10 μl of 2M MES-buffer pH 5.0. 50 μl of the incubation mixture are transferred into a MADP N65 filtration microtiter plate (Millipore, Eschbom, FRG) containing already 50 μl of AG-50W-X8 cation exchange resin (Biorad, München, FRG). The resin in the Na loaded form is pre-equilibrated in water and 70 μl (corresponding to 50 μl dry beads) are pipetted under heavy stirring with a 8 channel pipette into the filtration plate. After pipetting 50 μl of the enzyme reaction mixture onto the filtration plates, the plates are placed on a filtration manifold (Porvair, Shepperton, UK) and the flow through is collected in Pico scintillation plates (Packard, Meriden, Conn.). The resin in the filtration plates is washed with 75 μl of water (1×50 μl and 1×25 μl) which is also collected in the same plate as the sample. The total flow through of 125 μl is mixed with 175 μl of Microscint-40 scintillation cocktail (Packard) and the scintillation plate is sealed with TopSeal P-foil (Packard). Scintillation plates are counted in a scintillation counter.
For the measurement of inducible NO-synthase-inhibiting potencies of compounds increasing concentrations of inhibitors were included into the incubation mixture. IC50-values were calculated from the percent inhibition at given concentrations by nonlinear least square fitting.
The inhibitory values determined for the compounds according to the invention follow from the following table A, in which the compound numbers correspond to the example numbers.

For `COc1ccnc(CCc2nc3cc(-c4ccc(S(=O)(=O)N(C)c5ccc(Cl)cc5)cc4)cnc3[nH]2)c1` [Compound 28, N-(4-Chlorphenyl)-N-methyl-4-{2-[2-(4-methoxypyridin-2-yl)ethyl]-3H-imidazo-[4,5-b]pyridin-6-yl}benzenesulfonamid], the Inhibition of iNOS activity [measured as −logIC50] in series [1] is 7.41.
By melting point is commonly meant the temperature, or range, at which the solid turns liquid. Regarding `COc1ccnc(CCc2nc3cc(-c4ccc(S(=O)(=O)Nc5ccc(C)cc5)cc4)cnc3[nH]2)c1` [Compound 25, 4-{2-[2-(4-Methoxypyridin-2-yl)ethyl]-3H-imidazo[4,5-b]pyridin-6-yl}-N-p-tolyl-benzenesulfonamide], the melting point is 219 to 220 °C. Further, the IC50 in series [1] was 43.7 nM.
The compound `COc1ccnc(CCc2nc3cc(-c4ccc(S(=O)(=O)NCCO)cc4)cnc3[nH]2)c1` [Compound 17, N-(2-Hydroxyethyl)-4-{2-[2-(4-methoxypyridin-2-yl)ethyl]-3H-imidazo[4,5-b]pyridin-6-yl}benzenesulfonamid] came in with a melting point of 218 to 220 °C. The IC50 in series [1] was 42.7 nM.
On the same counts, the results for `COc1ccnc(CCc2nc3cc(-c4ccc(S(=O)(=O)N5CCN(c6ccccc6)CC5)cc4)cnc3[nH]2)c1` [Compound 3, 2-[2-(4-Methoxypyridin-2-yl)ethyl]-6-[4-(4-phenylpiperazin-1-yl-sulfonyl)-phenyl]-3H-imidazo-[4,5-b]pyridine] are 218 to 220 °C and 14.5 nM.
On the same counts, the results for `COc1ccnc(CCc2nc3cc(-c4ccc(S(=O)(=O)NCc5ccccc5)cc4)cnc3[nH]2)c1` [Compound 19, N-Benzyl-4-{2-[2-(4-methoxypyridin-2-yl)ethyl]-3H-imidazo-[4,5-b]pyridin-6-yl}benzenesulfonamid] are 211 to 212 °C and 18.6 nM.
`COc1ccnc(CCc2nc3cc(-c4ccc(S(=O)(=O)N5CCCN(C)CC5)cc4)cnc3[nH]2)c1` [Compound 11, 2-[2-(4-Methoxypyridin-2-yl)ethyl]-6-[4-(4-methyl-[1,4]diazepan-1-yl-sulfonyl)-phenyl]-3H-imidazo-[4,5-b]pyridine]: the melting point lay within 160 to 162 °C. The IC50 in series [1] is 12.9 nM.
The compound `COc1ccnc(CCc2nc3cc(-c4ccc(S(=O)(=O)N(CCO)CCO)cc4)cnc3[nH]2)c1` [Compound 18, N,N-Bis-(2-hydroxyethyl)-4-{2-[2-(4-methoxypyridin-2-yl)ethyl]-3H-imidazo-[4,5-b]pyridin-6-yl}benzenesulfonamid] showed a melting point of 127 to 128 °C. In series [1], the IC50 is 91.2 nM.
Compound `COc1ccnc(CCc2nc3cc(-c4ccc(S(=O)(=O)N5CCC(C(=O)c6ccccc6)CC5)cc4)cnc3[nH]2)c1` [Compound 13, 6-[4-(4-Benzoyl-piperidin-1-yl-sulfonyl)-phenyl]-2-[2-(4-methoxy-pyridin-2-yl)ethyl]-3H-imidazo[4,5-b]pyridine] gave a melting point of 174 to 175 °C. The IC50 in series [1] is 33.1 nM.
In turn, `COc1ccnc(CCc2nc3cc(-c4ccc(S(=O)(=O)N5CCC(C)CC5)cc4)cnc3[nH]2)c1` [Compound 12, 2-[2(4-Methoxypyridin-2-yl)ethyl]-6-[4-(4-methyl-piperidin-1-yl-sulfonyl)-phenyl]-3H-imidazo-[4,5-b]pyridine] yielded a melting point of 186 to 188 °C. Further, the IC50 in series [1] is 25.1 nM.
With `COCCN1CCN(S(=O)(=O)c2ccc(-c3cnc4[nH]c(CCc5cc(OC)ccn5)nc4c3)cc2)CC1` [Compound 8, 6-{4-[4-(2-Methoxy-ethyl)-piperazin-1-yl-sulfonyl]-phenyl}-2-[2-(4-methoxy-pyridin-2-yl)ethyl]-3H-imidazo[4,5-b]pyridine], the melting point lay within 206 to 208 °C. In addition, the IC50 in series [1] was 42.7 nM.
Take `COc1ccnc(CCc2nc3cc(-c4ccc(S(=O)(=O)N(C)C)cc4C)cnc3[nH]2)c1` [Compound 23, 4-{2-[2-(4-Methoxypyridin-2-yl)ethyl]-3H-imidazo[4,5-b]pyridin-6-yl}-N,N-dimethyl-3-methyl-benzenesulfonamide]: the melting point was 179 to 180 °C. In addition, the IC50 in series [1] is 67.6 nM.
For the compound `COc1ccnc(CCc2nc3cc(-c4ccc(S(=O)(=O)N5CCc6cc(OC)c(OC)cc6C5)cc4)cnc3[nH]2)c1` [Compound 15, 6-[4-(6,7-Dimethoxy-1,2,3,4-tetrahydroisoquinolin-2-yl-sulfonyl)-phenyl]-2-[2-(4-methoxy-pyridin-2-yl)ethyl]-3H-imidazo[4,5-b]pyridine], the melting point was 207 to 208 °C. Moreover, in series [1], the IC50 was 34.7 nM.
On the same counts, the results for `COc1ccnc(CCc2nc3cc(-c4ccc(S(=O)(=O)N5CCN(C(C)=O)CC5)cc4)cnc3[nH]2)c1` [Compound 9, 6-[4-(4-Acetyl-piperazin-1-yl-sulfonyl)-phenyl]-2-[2-(4-methoxy-pyridin-2-yl)ethyl]-3H-imidazo[4,5-b]pyridine] are 138 to 140 °C and 29.5 nM.
`COc1ccnc(CCc2nc3cc(-c4ccc(S(=O)(=O)N5CCN(c6cc(Cl)cc(Cl)c6)CC5)cc4)cnc3[nH]2)c1` [Compound 7, 6-{4-[4-(3,5-Dichlorphenyl)-piperazin-1-yl-sulfonyl]-phenyl}-2-[2-(4-methoxy-pyridin-2-yl)ethyl]-3H-imidazo[4,5-b]pyridine] returned an Inhibition of iNOS activity [measured as −logIC50] in series [1] of 6.51.
Regarding `COc1ccnc(CCc2nc3cc(-c4ccc(S(=O)(=O)Nc5ccccc5OC)cc4)cnc3[nH]2)c1` [Compound 26, 4-{2-[2-(4-Methoxypyridin-2-yl)ethyl]-3H-imidazo[4,5-b]pyridin-6-yl}-N-(2-methoxyphenyl)-benzenesulfonamide], the melting point lay within 215 to 216 °C. In addition, in series [1], the IC50 is 34.7 nM.
For `COc1ccnc(CCc2nc3cc(-c4ccc(S(=O)(=O)N5CCN(c6ccc(C#N)cc6)CC5)cc4)cnc3[nH]2)c1` [Compound 4, 2-[2-(4-Methoxypyridin-2-yl)ethyl]-6-{4-[4-(4-cyanophenyl)-piperazin-1-yl-sulfonyl]-phenyl}-3H-imidazo-[4,5-b]pyridine], in that order: 217 to 219 °C and 30.2 nM.
For `COc1ccnc(CCc2nc3cc(-c4ccc(S(=O)(=O)Nc5ccc(N(C)C)cc5)cc4)cnc3[nH]2)c1` [Compound 27, N-(4-Dimethylamino-phenyl)-4-{2-[2-(4-methoxypyridin-2-yl)ethyl]-3H-imidazo-[4,5-b]pyridin-6-yl}benzenesulfonamid], in that order: 221 to 222 °C and 45.7 nM.
Compound `COc1ccnc(CCc2nc3cc(-c4ccc(S(=O)(=O)N(C)C)c(C(F)(F)F)c4)cnc3[nH]2)c1` [Compound 22, 4-{2-[2-(4-Methoxypyridin-2-yl)ethyl]-3H-imidazo[4,5-b]pyridin-6-yl}-N,N-dimethyl-2-trifluormethyl-benzenesulfonamide] displayed an Inhibition of iNOS activity [measured as −logIC50] in series [1] of 7.
`COc1ccnc(CCc2nc3cc(-c4ccc(S(=O)(=O)N5CCNC(=O)CC5)cc4)cnc3[nH]2)c1` [Compound 16, 6-[4-(1,4-Diazepan-5-one-1-yl-sulfonyl)-phenyl]-2-[2-(4-methoxy-pyridin-2-yl)ethyl]-3H-imidazo[4,5-b]pyridine] returned a melting point of 230 to 232 °C. Moreover, the IC50 in series [1] is 24 nM.
`COc1ccnc(CCc2nc3cc(-c4ccc(S(=O)(=O)N5CCN(C)CC5)cc4)cnc3[nH]2)c1` [Compound 1] gave a melting point of 193 to 195 °C. In addition, in series [1], the IC50 is 19.5 nM.
In turn, `COc1ccnc(CCc2nc3cc(-c4ccc(S(=O)(=O)N5CCN(c6ccc(C)cc6)CC5)cc4)cnc3[nH]2)c1` [Compound 5, 2-[2-(4-Methoxypyridin-2-yl)ethyl]-6-[4-(4-p-tolyl-piperazin-1-yl-sulfonyl)-phenyl]-3H-imidazo-[4,5-b]pyridine] gave a melting point of 150 to 154 °C. For the same compound, the IC50 in series [1] was 26.3 nM.
On the same counts, the results for `COc1ccnc(CCc2nc3cc(-c4ccc(S(=O)(=O)N5CCOCC5)cc4)cnc3[nH]2)c1` [Compound 10, 2-[2-(4-Methoxypyridin-2-yl)ethyl]-6-[4-(morpholin-4-yl-sulfonyl)-phenyl]-3H-imidazo-[4,5-b]pyridine] are 210 to 212 °C and 22.9 nM.
`COc1ccnc(CCc2nc3cc(-c4ccc(S(=O)(=O)N(C)C)c(OC(F)(F)F)c4)cnc3[nH]2)c1` [Compound 21, 4-{2-[2-(4-Methoxypyridin-2-yl)ethyl]-3H-imidazo[4,5-b]pyridin-6-yl}-N,N-dimethyl-2-trifluormethoxy-benzenesulfonamide] yielded an Inhibition of iNOS activity [measured as −logIC50] in series [1] of 6.95.
